Measurements taken from PubChem BioAssay AID1259407 (Chemical Carcinogenesis Research Information System (CCRIS), 2018).
Activity calls are given as the source filed them. The rule behind the calls is not given here.

System: CCRIS mutagenicity, Ames/micronucleus/aberration tests
Test: CCRIS mutagenicity studies
[1] = Test System: AMES SALMONELLA TYPHIMURIUM, Strain/Indicator: TA98, Metabolic Activation: NONE, Method: PREINCUBATION
[2] = Test System: AMES SALMONELLA TYPHIMURIUM, Strain/Indicator: TA100, Metabolic Activation: NONE, Method: STANDARD PLATE
[3] = Test System: AMES SALMONELLA TYPHIMURIUM, Strain/Indicator: TA98, Metabolic Activation: NONE, Method: STANDARD PLATE
[4] = Test System: AMES SALMONELLA TYPHIMURIUM, Strain/Indicator: TA98, Metabolic Activation: RAT, LIVER, S-9, AROCLOR 1254, Method: STANDARD PLATE
[5] = Test System: AMES SALMONELLA TYPHIMURIUM, Strain/Indicator: TA100, Metabolic Activation: RAT, LIVER, S-9, AROCLOR 1254, Method: STANDARD PLATE

Which results are given for `O=[N+]([O-])c1ccc2c(ccc3c4ccccc4ccc23)c1`?
mutagenic call (Test System: AMES SALMONELLA TYPHIMURIUM, Strain/Indicator: TA98(1,8-DNP6), Metabolic Activation: NONE): active; positive; mutagenic call (Test System: AMES SALMONELLA TYPHIMURIUM, Strain/Indicator: TA98(1,8-DNP6), Metabolic Activation: RAT, LIVER, S-9, AROCLOR 1254): active; positive; mutagenic call (Test System: AMES SALMONELLA TYPHIMURIUM, Strain/Indicator: TA98(NR), Metabolic Activation: NONE): active; positive; mutagenic call (Test System: AMES SALMONELLA TYPHIMURIUM, Strain/Indicator: TA98(NR), Metabolic Activation: RAT, LIVER, S-9, AROCLOR 1254): active; positive; mutagenic call (Test System: AMES SALMONELLA TYPHIMURIUM, Strain/Indicator: TA98, Metabolic Activation: NONE): active; positive; mutagenic call (Test System: AMES SALMONELLA TYPHIMURIUM, Strain/Indicator: TA98, Metabolic Activation: RAT, LIVER, S-9, AROCLOR 1254): active; positive; mutagenic call (Test System: AMES SALMONELLA TYPHIMURIUM, Strain/Indicator: TA100(NR), Metabolic Activation: NONE): active; positive; mutagenic call (Test System: AMES SALMONELLA TYPHIMURIUM, Strain/Indicator: TA100(NR), Metabolic Activation: RAT, LIVER, S-9, AROCLOR 1254): active; positive; mutagenic call (Test System: AMES SALMONELLA TYPHIMURIUM, Strain/Indicator: TA100, Metabolic Activation: NONE): active; positive; mutagenic call (Test System: AMES SALMONELLA TYPHIMURIUM, Strain/Indicator: TA100, Metabolic Activation: RAT, LIVER, S-9, AROCLOR 1254): active; positive; mutagenic call (Test System: AMES SALMONELLA TYPHIMURIUM, Strain/Indicator: TA104, Metabolic Activation: NONE): active; positive; mutagenic call (Test System: AMES SALMONELLA TYPHIMURIUM, Strain/Indicator: TA104, Metabolic Activation: RAT, LIVER, S-9, AROCLOR 1254): active; positive

How did the mutagenic call (Test System: AMES SALMONELLA TYPHIMURIUM, Strain/Indicator: TA97, Metabolic Activation: HAMSTER, LIVER, S-9, AROCLOR 1254 (10%), Method: PREINCUBATION) turn out when `O=NN(CCO)CCO` was run?
The mutagenic call was “active; positive”.

And the mutagenic call (Test System: AMES SALMONELLA TYPHIMURIUM, Strain/Indicator: TA97, Metabolic Activation: NONE, Method: PREINCUBATION)?
The mutagenic call was “active; positive”.

And the mutagenic call (Test System: AMES SALMONELLA TYPHIMURIUM, Strain/Indicator: TA97, Metabolic Activation: RAT, LIVER, S-9, AROCLOR 1254 (10%), Method: PREINCUBATION)?
Its mutagenic call is “active; positive”.

What about the mutagenic call (Test System: AMES SALMONELLA TYPHIMURIUM, Strain/Indicator: TA98, Metabolic Activation: HAMSTER, LIVER, S-9, AROCLOR 1254 (10%), Method: PREINCUBATION) of the same compound?
Its mutagenic call is “active; positive”.

And the mutagenic call [1]?
The mutagenic call was “active; positive”.

What about the mutagenic call (Test System: AMES SALMONELLA TYPHIMURIUM, Strain/Indicator: TA98, Metabolic Activation: RAT, LIVER, S-9, AROCLOR 1254 (10%), Method: PREINCUBATION) of the same compound?
Its mutagenic call is “active; positive”.

What about the mutagenic call (Test System: AMES SALMONELLA TYPHIMURIUM, Strain/Indicator: TA100, Metabolic Activation: HAMSTER, LIVER, S-9, AROCLOR 1254 (10%), Method: PREINCUBATION) of the same compound?
The mutagenic call was “active; positive”.

And the mutagenic call [2]?
The mutagenic call was “active; positive”.

And the mutagenic call (Test System: AMES SALMONELLA TYPHIMURIUM, Strain/Indicator: TA100, Metabolic Activation: RABBIT, LIVER, S-9, Method: STANDARD PLATE)?
The mutagenic call was “inactive; negative”.

And the mutagenic call (Test System: AMES SALMONELLA TYPHIMURIUM, Strain/Indicator: TA100, Metabolic Activation: RABBIT, LUNG, S-9, Method: STANDARD PLATE)?
The mutagenic call was “inactive; negative”.

And the mutagenic call (Test System: AMES SALMONELLA TYPHIMURIUM, Strain/Indicator: TA100, Metabolic Activation: RABBIT, NASAL, S-9, Method: STANDARD PLATE)?
Its mutagenic call is “active; positive”.

And the mutagenic call (Test System: AMES SALMONELLA TYPHIMURIUM, Strain/Indicator: TA100, Metabolic Activation: RAT, LIVER, S-9, AROCLOR 1254 (10%), Method: PREINCUBATION)?
The mutagenic call was “active; positive”.

What about the mutagenic call (Test System: AMES SALMONELLA TYPHIMURIUM, Strain/Indicator: TA100, Metabolic Activation: RAT, LIVER, S-9, Method: STANDARD PLATE) of the same compound?
Its mutagenic call is “inactive; negative”.

What about the mutagenic call (Test System: AMES SALMONELLA TYPHIMURIUM, Strain/Indicator: TA100, Metabolic Activation: RAT, LUNG, S-9, Method: STANDARD PLATE) of the same compound?
The mutagenic call was “active; positive”.

And the mutagenic call (Test System: AMES SALMONELLA TYPHIMURIUM, Strain/Indicator: TA100, Metabolic Activation: RAT, NASAL, S-9, Method: STANDARD PLATE)?
Its mutagenic call is “active; positive”.

What about the mutagenic call (Test System: AMES SALMONELLA TYPHIMURIUM, Strain/Indicator: TA1535, Metabolic Activation: HAMSTER, LIVER, S-9, AROCLOR 1254 (10%), Method: PREINCUBATION) of the same compound?
Its mutagenic call is “active; positive”.

What about the mutagenic call (Test System: AMES SALMONELLA TYPHIMURIUM, Strain/Indicator: TA1535, Metabolic Activation: NONE, Method: PREINCUBATION) of the same compound?
Its mutagenic call is “inactive; negative”.

What about the mutagenic call (Test System: AMES SALMONELLA TYPHIMURIUM, Strain/Indicator: TA1535, Metabolic Activation: RAT, LIVER, S-9, AROCLOR 1254 (10%), Method: PREINCUBATION) of the same compound?
Its mutagenic call is “active; positive”.

`O=C(CO)N(O)c1ccc(Cl)cc1` was tested. Which mutagenic call [3] did it give?
The mutagenic call was “inactive; negative”.

And the mutagenic call [4]?
Its mutagenic call is “inactive; negative”.

And the mutagenic call [2]?
Its mutagenic call is “inactive; negative”.

And the mutagenic call [5]?
Its mutagenic call is “inactive; negative”.

What does the source list for `CC(=O)OCc1c2ccccc2cc2c1ccc1ccccc12`?
mutagenic call [3]: active; positive; mutagenic call [2]: active; positive

`Nc1cc([N+](=O)[O-])c(C(=O)O)c([N+](=O)[O-])c1` was tested. Which mutagenic call (End Point: In vitro chromosomal aberrations, Test System: V79 Chinese hamster fibroblasts, Metabolic Activation: None) did it give?
Its mutagenic call is “inactive; negative”.

What about the mutagenic call (End Point: In vitro micronucleus, Test System: HepG2 human hepatoma cells, Metabolic Activation: None) of the same compound?
Its mutagenic call is “active; positive”.

And the mutagenic call (Test System: Ames Salmonella typhimurium, Strain/Indicator: TA98, Metabolic Activation: None, Method: Standard plate)?
The mutagenic call was “active; positive”.

And the mutagenic call (Test System: Ames Salmonella typhimurium, Strain/Indicator: TA98, Metabolic Activation: Rat, Liver, S-9, Method: Standard plate)?
Its mutagenic call is “active; positive”.

What about the mutagenic call (Test System: Ames Salmonella typhimurium, Strain/Indicator: TA98NR, Metabolic Activation: None, Method: Standard plate) of the same compound?
The mutagenic call was “active; positive, ta98nr is the nitroreductase-deficient derivative of ta98”.

And the mutagenic call (Test System: Ames Salmonella typhimurium, Strain/Indicator: TA100, Metabolic Activation: None, Method: Standard plate)?
Its mutagenic call is “active; positive”.

What about the mutagenic call (Test System: Ames Salmonella typhimurium, Strain/Indicator: TA100, Metabolic Activation: Rat, Liver, S-9, Method: Standard plate) of the same compound?
Its mutagenic call is “active; positive”.

What does the source list for `Cc1ccc([N+](=O)[O-])cc1N=O`?
mutagenic call [1]: active; positive; mutagenic call (Test System: AMES SALMONELLA TYPHIMURIUM, Strain/Indicator: TA98, Metabolic Activation: NONE, Method: SUSPENSION/PLATE): inactive; negative; mutagenic call (Test System: AMES SALMONELLA TYPHIMURIUM, Strain/Indicator: TA98, Metabolic Activation: RAT, LIVER, S-9, AROCLOR, Method: PREINCUBATION): active; positive; mutagenic call (Test System: AMES SALMONELLA TYPHIMURIUM, Strain/Indicator: TA98, Metabolic Activation: RAT, LIVER, S-9, PHENOBARBITAL AND 5,6-BENZOFLAVONE, Method: SUSPENSION/PLATE): inactive; negative; mutagenic call (Test System: AMES SALMONELLA TYPHIMURIUM, Strain/Indicator: TA100, Metabolic Activation: NONE, Method: SUSPENSION/PLATE): inactive; negative; mutagenic call (Test System: AMES SALMONELLA TYPHIMURIUM, Strain/Indicator: TA100, Metabolic Activation: RAT, LIVER, S-9, PHENOBARBITAL AND 5,6-BENZOFLAVONE, Method: SUSPENSION/PLATE): inactive; negative

Which mutagenic call [3] does the source give for `CCCCCC(=O)O[C@]1(C(C)=O)CC[C@H]2[C@@H]3CCC4=CC(=O)CC[C@@H]4[C@H]3CC[C@@]21C` here?
Its mutagenic call is “inactive; negative”.

What about the mutagenic call [4] of the same compound?
Its mutagenic call is “inactive; negative”.

What about the mutagenic call [2] of the same compound?
Its mutagenic call is “inactive; negative”.

And the mutagenic call [5]?
The mutagenic call was “inactive; negative”.

And the mutagenic call (Test System: AMES SALMONELLA TYPHIMURIUM, Strain/Indicator: TA1535, Metabolic Activation: NONE, Method: STANDARD PLATE)?
Its mutagenic call is “inactive; negative”.

And the mutagenic call (Test System: AMES SALMONELLA TYPHIMURIUM, Strain/Indicator: TA1535, Metabolic Activation: RAT, LIVER, S-9, AROCLOR 1254, Method: STANDARD PLATE)?
Its mutagenic call is “inactive; negative”.

What about the mutagenic call (Test System: AMES SALMONELLA TYPHIMURIUM, Strain/Indicator: TA1537, Metabolic Activation: NONE, Method: STANDARD PLATE) of the same compound?
Its mutagenic call is “inactive; negative”.

What about the mutagenic call (Test System: AMES SALMONELLA TYPHIMURIUM, Strain/Indicator: TA1537, Metabolic Activation: RAT, LIVER, S-9, AROCLOR 1254, Method: STANDARD PLATE) of the same compound?
The mutagenic call was “inactive; negative”.

And the mutagenic call (Test System: AMES SALMONELLA TYPHIMURIUM, Strain/Indicator: TA1538, Metabolic Activation: NONE, Method: STANDARD PLATE)?
Its mutagenic call is “inactive; negative”.

What about the mutagenic call (Test System: AMES SALMONELLA TYPHIMURIUM, Strain/Indicator: TA1538, Metabolic Activation: RAT, LIVER, S-9, AROCLOR 1254, Method: STANDARD PLATE) of the same compound?
Its mutagenic call is “inactive; negative”.
